Structures are written as SMILES. Several values for one entry are separate records, joined by “and”; a condition that tells them apart may be missing. Equal values may be shown once. Inconclusive results and toxic doses are left out.

These results are taken from PubChem BioAssay AID256 (DTP/NCI, 2004).

For the test, the system named is CD2F1 mice, L1210 leukemia ip, survival T/C. Briefly: NCI In Vivo Anticancer Drug Screen. Data for tumor model L1210 Leukemia (intraperitoneal) in CD2F1 (CDF1) mice. As to conditions: higher = longer survival. Summed up:
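Ratio T/C, where T is the treated-group value and C the vehicle-dosed control value, from mice implanted with a transplantable tumor.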

[1] abbreviates: endpoint: mean survival time, dose: 100.0 mg/kg/injection, schedule: Q04DX003 (ip), vehicle: saline with Tween-80.
Setting [2] is: endpoint: mean survival time, dose: 200.0 mg/kg/injection, schedule: Q04DX003 (ip), vehicle: saline with Tween-80.
The mark [3] stands for this setting: endpoint: mean survival time, dose: 100.0 mg/kg/injection, schedule: Q01DX009 (ip), vehicle: saline with Tween-80.
Setting [4] is: endpoint: mean survival time, dose: 200.0 mg/kg/injection, schedule: Q01DX009 (ip), vehicle: saline with Tween-80.
[5] abbreviates: endpoint: mean survival time, dose: 400.0 mg/kg/injection, schedule: Q01DX009 (ip), vehicle: saline with Tween-80.
Where [6] appears, read: endpoint: mean survival time, dose: 400.0 mg/kg/injection, schedule: Q04DX003 (ip), vehicle: saline with Tween-80.
Where [7] appears, read: endpoint: mean survival time, dose: 100.0 mg/kg/injection, schedule: Q01DX001 (ip), vehicle: saline.
Where [8] appears, read: endpoint: mean survival time, dose: 200.0 mg/kg/injection, schedule: Q01DX001 (ip), vehicle: saline.

For `CCCOC(=O)c1cc([N+](=O)[O-])c(Sc2ncnc3nc[nH]c23)c([N+](=O)[O-])c1`, the T/C is 109 % of control (endpoint: mean survival time, dose: 0.63 mg/kg/injection, schedule: Q01DX005 (ip), vehicle: other); 116 % of control (endpoint: mean survival time, dose: 1.25 mg/kg/injection, schedule: Q01DX005 (ip), vehicle: other); 111 % of control (endpoint: mean survival time, dose: 2.5 mg/kg/injection, schedule: Q01DX005 (ip), vehicle: other); 111 % of control (endpoint: mean survival time, dose: 5.0 mg/kg/injection, schedule: Q01DX005 (ip), vehicle: other); 121 % of control (endpoint: mean survival time, dose: 10.0 mg/kg/injection, schedule: Q01DX005 (ip), vehicle: other); 165 % of control (endpoint: mean survival time, dose: 62.5 mg/kg/injection, schedule: Q01DX005 (ip), vehicle: other). For the setting “endpoint: mean survival time, dose: 125.0 mg/kg/injection, schedule: Q01DX005 (ip), vehicle: other”, the T/C was 101 % of control.
As to `CCC(O)C[As](=O)(O)c1ccccc1OC` (stereo not given), the T/C by setting is: (endpoint: mean survival time, dose: 6.25 mg/kg/injection, schedule: Q04DX003 (ip), vehicle: saline with Tween-80) 97 % of control; (endpoint: mean survival time, dose: 12.5 mg/kg/injection, schedule: Q04DX003 (ip), vehicle: saline with Tween-80) 97 % of control; (endpoint: mean survival time, dose: 25.0 mg/kg/injection, schedule: Q04DX003 (ip), vehicle: saline with Tween-80) 103 % of control.
Consider `Oc1c(Br)cc(Br)c(O)c1Br`, for which the T/C by setting is: under setting [1], 97 % of control; under setting [2], 95 % of control.
As for `CCCC1=C(CCC)C(F)(F)C1(F)F`, the T/C was 98 % of control (endpoint: mean survival time, dose: 75.0 mg/kg/injection, schedule: Q01DX001 (ip), vehicle: other); 96 % of control (endpoint: mean survival time, dose: 150.0 mg/kg/injection, schedule: Q01DX001 (ip), vehicle: other); 108 % of control (endpoint: mean survival time, dose: 300.0 mg/kg/injection, schedule: Q01DX001 (ip), vehicle: other).
As to `NC(=O)c1ccn(C2OC(CO)C(O)C2O)n1` (stereo not given), the T/C reads like this: (endpoint: mean survival time, dose: 200.0 mg/kg/injection, schedule: Q01DX005 (ip), vehicle: other) 106 % of control; (endpoint: mean survival time, dose: 400.0 mg/kg/injection, schedule: Q01DX005 (ip), vehicle: other) 107 % of control; (endpoint: mean survival time, dose: 800.0 mg/kg/injection, schedule: Q01DX005 (ip), vehicle: other) 117 % of control.
For `[NH-]C(CCC(N)=O)C(=O)O.[NH-]C(CCC(N)=O)C(=O)O.[Zn+2]` (stereo not given), the T/C (endpoint: median survival time, dose: 6.25 mg/kg/injection, schedule: Q01DX009 (ip), vehicle: saline with Tween-80) was 102 % of control; the T/C (endpoint: median survival time, dose: 12.5 mg/kg/injection, schedule: Q01DX009 (ip), vehicle: saline with Tween-80) was 101 % of control; the T/C (endpoint: median survival time, dose: 25.0 mg/kg/injection, schedule: Q01DX009 (ip), vehicle: saline with Tween-80) is 96 % of control; the T/C (endpoint: median survival time, dose: 50.0 mg/kg/injection, schedule: Q01DX009 (ip), vehicle: saline with Tween-80) is 101 % of control.
Consider `Cc1nc2ccccc2nc1CBr`, for which the T/C (endpoint: mean survival time, dose: 12.5 mg/kg/injection, schedule: Q01DX009 (ip), vehicle: acetone) was 110 % of control.
For the molecule `O=C(NCCNC(=O)Nc1ccc(Cl)cc1)Nc1ccc(Cl)cc1`, the T/C runs as follows: under setting [3], 105 % of control; under setting [1], 88 % of control; under setting [4], 107 % of control; under setting [2], 90 % of control; under setting [5], 96 % of control; under setting [6], 88 % of control.
As for `CCC(C(N)=O)C1=CCCCC1` (stereo not given), the T/C under setting [1] is 103 % of control, the T/C under setting [2] is 104 % of control and the T/C under setting [6] is 101 % of control.
For `CC(=O)O.[Tl]`, the T/C is 112 % of control (endpoint: mean survival time, dose: 20.0 mg/kg/injection, schedule: Q01DX001 (ip), vehicle: saline); 97 % of control (endpoint: mean survival time, dose: 80.0 mg/kg/injection, schedule: Q01DX001 (ip), vehicle: saline); 100 % of control under setting [7]; 100 % of control under setting [8].
For `CCCCNC(=O)C1CC2c3cccc4c3C(CN4)CC2N(C)C1` (stereo not given), the T/C by setting is: (endpoint: mean survival time, dose: 50.0 mg/kg/injection, schedule: Q04DX003 (ip), vehicle: saline with Tween-80) 94 % of control; under setting [1], 88 % of control.
With `c1ccc2c3c(ccc2c1)-c1oncc1CC3`, the T/C by setting is: (endpoint: mean survival time, dose: 100.0 mg/kg/injection, schedule: Q04DX003 (ip), vehicle: saline) 98 % of control; (endpoint: mean survival time, dose: 200.0 mg/kg/injection, schedule: Q04DX003 (ip), vehicle: saline) 91 % of control; (endpoint: mean survival time, dose: 400.0 mg/kg/injection, schedule: Q04DX003 (ip), vehicle: saline) 102 % of control.
As to `COc1cn(C2OC(CO)C(O)C2O)c(=O)nc1N` (stereo not given), the T/C reads like this: (endpoint: median survival time, dose: 25.0 mg/kg/injection, schedule: Q01DX005 (ip), vehicle: saline) 114 % of control; (endpoint: median survival time, dose: 50.0 mg/kg/injection, schedule: Q01DX005 (ip), vehicle: saline) 111 % of control; (endpoint: median survival time, dose: 100.0 mg/kg/injection, schedule: Q01DX005 (ip), vehicle: saline) 114 % of control.
For `ON=C(Cc1ccccc1)Cc1ccccc1`, the T/C under setting [3] is 103 % of control; the T/C under setting [1] is 102 % of control; the T/C under setting [4] is 94 % of control; the T/C under setting [2] was 100 % of control; the T/C under setting [5] was 95 % of control; the T/C under setting [6] was 105 % of control.
`CCCC(C#N)(CCCl)c1ccccc1` (stereo not given): the T/C by setting is: under setting [1], 101 % of control; under setting [2], 101 % of control; under setting [6], 96 % of control.
On to `COC(=N)c1ccc(Cl)cc1`, for which the T/C is 97 % of control under setting [1], 103 % of control under setting [2] and 93 % of control under setting [6].
As for `CCCCC#CC(=O)CCCCC`, the T/C was 97 % of control (endpoint: mean survival time, dose: 50.0 mg/kg/injection, schedule: Q01DX009 (ip), vehicle: saline with Tween-80) and 102 % of control under setting [3].
In the case of `Cc1cc(NC(=O)Oc2ccccc2)ccc1S(=O)(=O)F`, the T/C (endpoint: mean survival time, dose: 50.0 mg/kg/injection, schedule: Q01DX009 (ip), vehicle: saline) is 98 % of control; the T/C (endpoint: mean survival time, dose: 100.0 mg/kg/injection, schedule: Q01DX009 (ip), vehicle: saline) was 94 % of control; the T/C (endpoint: mean survival time, dose: 200.0 mg/kg/injection, schedule: Q01DX009 (ip), vehicle: saline) is 98 % of control.
Regarding `O=CNc1cc([N+](=O)[O-])ccc1OCc1ccccc1`, the T/C under setting [7] was 100 % of control; the T/C under setting [8] was 97 % of control; the T/C (endpoint: mean survival time, dose: 400.0 mg/kg/injection, schedule: Q01DX001 (ip), vehicle: saline) was 96 % of control.
Consider `CC[C@@]1(O)C[C@H](OC2CC(N(C)C)C(OC3CC(O)C(OC4CCC(=O)C(C)O4)C(C)O3)C(C)O2)c2c(cc3c(c2O)C(=O)c2c(O)ccc(O)c2C3=O)[C@H]1C(=O)OC` (stereo not given in full), for which the T/C reads like this: (endpoint: mean survival time, dose: 0.25 mg/kg/injection, schedule: Q01DX009 (ip), vehicle: water) 101 % of control and 109 % of control; (endpoint: mean survival time, dose: 0.5 mg/kg/injection, schedule: Q01DX009 (ip), vehicle: water) 113 % of control and 117 % of control and 119 % of control; (endpoint: mean survival time, dose: 1.0 mg/kg/injection, schedule: Q01DX009 (ip), vehicle: water) 122 % of control; (endpoint: mean survival time, dose: 4.0 mg/kg/injection, schedule: Q01DX009 (ip), vehicle: water) 89 % of control.
Consider `O=[N+]([O-])O.S=C([SH2+])[n+]1ccccc1.S=C([SH2+])[n+]1ccccc1.[NH-]C1CCCCC1[NH-].[Pt+4]`, for which the T/C was 101 % of control (endpoint: median survival time, dose: 3.12 mg/kg/injection, schedule: Q04DX003 (ip), vehicle: saline); 109 % of control (endpoint: median survival time, dose: 6.25 mg/kg/injection, schedule: Q04DX003 (ip), vehicle: saline); 100 % of control (endpoint: median survival time, dose: 12.5 mg/kg/injection, schedule: Q04DX003 (ip), vehicle: saline); 90 % of control (endpoint: median survival time, dose: 25.0 mg/kg/injection, schedule: Q04DX003 (ip), vehicle: saline); 95 % of control (endpoint: median survival time, dose: 50.0 mg/kg/injection, schedule: Q04DX003 (ip), vehicle: saline); 106 % of control (endpoint: median survival time, dose: 100.0 mg/kg/injection, schedule: Q04DX003 (ip), vehicle: saline). The T/C (endpoint: median survival time, dose: 200.0 mg/kg/injection, schedule: Q04DX003 (ip), vehicle: saline) was 109 % of control.
